# Target: T1, GLUT1 (Homo sapiens, UniProt P11166)
# T1 sequence (P11166 1-492): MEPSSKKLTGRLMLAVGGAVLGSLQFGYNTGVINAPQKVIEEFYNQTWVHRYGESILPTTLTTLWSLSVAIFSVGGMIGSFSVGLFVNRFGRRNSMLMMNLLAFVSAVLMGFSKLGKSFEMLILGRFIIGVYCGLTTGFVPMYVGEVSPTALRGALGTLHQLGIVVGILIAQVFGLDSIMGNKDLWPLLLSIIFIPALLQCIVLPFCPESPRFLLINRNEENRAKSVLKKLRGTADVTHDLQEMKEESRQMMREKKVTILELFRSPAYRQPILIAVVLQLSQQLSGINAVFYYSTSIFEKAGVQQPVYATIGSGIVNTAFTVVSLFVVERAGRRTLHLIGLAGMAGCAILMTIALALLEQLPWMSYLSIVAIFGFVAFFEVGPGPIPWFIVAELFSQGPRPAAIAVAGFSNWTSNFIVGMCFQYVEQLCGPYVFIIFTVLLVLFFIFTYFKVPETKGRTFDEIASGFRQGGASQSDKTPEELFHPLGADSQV
# Assay: Indirect measurement of GLUT1 activity by quantification of intracellular ATP levels (glucose induced ATP increase)
# Format: cell-based
# Parameters: endogenous in cells; host or cells: DLD1 or CHO-K1
# Conditions: read-out: IC50 regarding glucose induced ATP increase (GLUT1 inhibition)
# Procedure, shortened: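 DLD1 or CHO-K1 cells were starved overnight in glucose-free medium with 1% FCS, then combined with an oxidative phosphorylation inhibitor. GLUT1 activity was read as glucose-induced ATP increase, GLUT2 as fructose-induced. Intracellular ATP was quantified by CellTiter-Glo luminescence.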
row,Structure (SMILES),IC50
1,"Cc1nn(Cc2ccc(F)c(F)c2)c(C)c1NC(=O)c1cc(C(C)C)nc2ccc(Br)cc12 [Example 129, 6-bromo-N-[1-(3,4-difluorobenzyl)-3,5-dimethyl-1H-pyrazol-4-yl]-2-(propan-2-yl)quinoline-4-carboxamide]",4.1 nM
2,CC(=O)c1ccc(Cn2nc(C)c(NC(=O)c3cc(C(N)=O)nc4cccc(F)c34)c2C)cc1 [Example 1609],1.2 nM
3,"Cc1nn(Cc2ccc(F)c(F)c2)c(C)c1NC(=O)c1cc(C(F)(F)F)nc2cc(F)c(F)cc12 [Example 177, N-[1-(3,4-difluorobenzyl)-3,5-dimethyl-1H-pyrazol-4-yl]-6,7-difluoro-2-(trifluoromethyl)quinoline-4-carboxamide]",73.9 nM
4,Cc1nn(Cc2ccc(C(=O)NC[C@@H](O)CO)cc2)c(C)c1NC(=O)c1cc(C(F)(F)F)nc2ccc(Br)cc12 [Example 1152],132 nM
5,"Cc1c(NC(=O)c2cc(C(F)(F)F)nc3ccc(Br)cc23)c(C(F)(F)F)nn1Cc1ccc(F)c(F)c1 [Example 197, 6-bromo-N-[1-(3,4-difluorobenzyl)-5-methyl-3-(trifluoromethyl)-1H-pyrazol-4-yl]-2-(trifluoromethyl)quinoline-4-carboxamide]",333 nM
6,Cc1c(NC(=O)c2cc(C(=O)NCCN(C)C)nc3cc(F)ccc23)c(C(F)(F)F)nn1Cc1ccc(C#N)cc1 [Example 1400],2610 nM
7,"CCc1c(NC(=O)c2cc(C(N)=O)nc3ccccc23)c(C)nn1Cc1ccc(C#N)cc1 [Example 326, N^4-[1-(4-cyanobenzyl)-5-ethyl-3-methyl-1H-pyrazol-4-yl]quinoline-2,4-dicarboxamide]",14.3 nM
8,Cc1c(NC(=O)c2cc(C(N)=O)nc3cc(F)ccc23)c(C(F)(F)F)nn1Cc1ccc(S(C)(=O)=O)cc1 [Example 1429],29.4 nM
9,"Cc1c(NC(=O)c2cc(C(N)=O)nc3ccc(Br)cc23)c(C(F)(F)F)nn1Cc1ccccc1C#N [Example 274, 6-bromo-N^4-[1-(2-cyanobenzyl)-5-methyl-3-(trifluoromethyl)-1H-pyrazol-4-yl]quinoline-2,4-dicarboxamide]",1 nM
10,"Cc1c(NC(=O)c2cc(C(N)=O)nc3ccccc23)c(C(F)(F)F)nn1Cc1ccc(F)c(F)c1 [Example 128, N^4-[1-(3,4-difluorobenzyl)-5-methyl-3-(trifluoromethyl)-1H-pyrazol-4-yl]quinoline-2,4-dicarboxamide]",3.3 nM
11,"Cc1nn(Cc2ccc(F)cc2)c(C)c1NC(=O)c1cc(C2CCC2)nc2ccc(Br)cc12 [Example 146, 6-bromo-2-cyclobutyl-N-[1-(4-fluorobenzyl)-3,5-dimethyl-1H-pyrazol-4-yl]quinoline-4-carboxamide]",7.9 nM
12,Cc1c(NC(=O)c2cc(C(N)=O)nc3ccccc23)c(C(F)(F)F)nn1Cc1ccc(S(C)(=O)=O)cc1 [Example 1432],27.4 nM
13,"COc1cc(C(=O)Nc2c(C)nn(Cc3ccc(OC)c(F)c3)c2C)c2ccccc2n1 [Example 239, N-[1-(3-fluoro-4-methoxybenzyl)-3,5-dimethyl-1H-pyrazol-4-yl]-2-methoxyquinoline-4-carboxamide]",2.9 nM
14,Cc1c(NC(=O)c2cc(C(N)=O)nc3cc(F)c(Cl)cc23)c(C(F)(F)F)nn1Cc1cc(C2CC2)on1 [Example 1551],11.1 nM
15,"Cc1nn(Cc2ccc(CC(=O)NCCO)cc2)c(C)c1NC(=O)c1cc(C(F)(F)F)nc2ccc(Br)cc12 [Example 159, 6-bromo-N-[1-(4-{2-[(2-hydroxyethyl)amino]-2-oxoethyl}benzyl)-3,5-dimethyl-1H-pyrazol-4-yl]-2-(trifluoromethyl)quinoline-4-carboxamide]",875 nM
16,"COc1cc(C(=O)Nc2c(C)nn(Cc3cccc(OC(F)(F)F)c3)c2C)c2ccccc2n1 [Example 115, N-{3,5-dimethyl-1-[3-(trifluoromethoxy)benzyl]-1H-pyrazol-4-yl}-2-methoxyquinoline-4-carboxamide]",833 nM
17,CC(=O)c1cccc(Cn2nc(C(F)(F)F)c(NC(=O)c3cc(C(N)=O)nc4cc(F)c(Cl)cc34)c2C)c1 [Example 1621],15.3 nM
18,COc1cc(C(=O)Nc2c(C(F)(F)F)nn(Cc3ccncc3C#N)c2C)c2ccccc2n1 [Example 1188],290 nM
19,Cc1nn(Cc2ccc(C(=O)Nc3ccccc3)cn2)c(C)c1NC(=O)c1cc(C(F)(F)F)nc2ccc(Br)cc12 [Example 1041],8.6 nM
20,Cc1c(NC(=O)c2cc(C(F)(F)F)nc3ccc(Br)cc23)c(C#N)nn1Cc1ccc(F)cc1 [Example 1338],26.3 nM
21,"Cc1c(NC(=O)c2cc(C(N)=O)nc3cc(F)ccc23)c(C(F)(F)F)nn1Cc1ccc(C(=O)N2CCC2)cc1 [Example 372, N^4-{1-[4-(azetidin-1-ylcarbonyl)benzyl]-5-methyl-3-(trifluoromethyl)-1H-pyrazol-4-yl}-7-fluoroquinoline-2,4-dicarboxamide]",20 nM

row,Structure (SMILES),IC50
1,Cc1c(NC(=O)c2cc(C(N)=O)nc3ccc(S(C)(=O)=O)cc23)c(C(F)(F)F)nn1Cc1ccc(C#N)cc1 [Example 1389],1930 nM
2,"Cc1cc(C(=O)Nc2c(C)nn(Cc3ccc(F)cc3)c2C)c2cc(F)ccc2n1 [Example 90, 6-fluoro-N-[1-(4-fluorobenzyl)-3,5-dimethyl-1H-pyrazol-4-yl]-2-methylquinoline-4-carboxamide]",291 nM
3,Cc1nn(Cc2ccc(C(C)O)cc2)c(C)c1NC(=O)c1cc(C(N)=O)nc2ccccc12 (racemic) [Example 1635],45.4 nM
4,"Cc1cc(C#N)c2nc(C(F)(F)F)cc(C(=O)Nc3c(C)nn(Cc4ccc(F)cc4)c3C)c2c1 [Example 102, 8-cyano-N-[1-(4-fluorobenzyl)-3,5-dimethyl-1H-pyrazol-4-yl]-6-methyl-2-(trifluoromethyl)quinoline-4-carboxamide]",446 nM
5,"Cc1c(NC(=O)c2cc(C(F)(F)F)nc3cc(F)c(F)cc23)c(C(F)(F)F)nn1Cc1ccc(C#N)cc1 [Example 182, N-[1-(4-cyanobenzyl)-5-methyl-3-(trifluoromethyl)-1H-pyrazol-4-yl]-6,7-difluoro-2-(trifluoromethyl)quinoline-4-carboxamide]",101 nM
6,"Cc1nn(Cc2ccc(F)cc2)c(C)c1NC(=O)c1cc(Cl)nc2ccccc12 [Example 99, 2-chloro-N-[1-(4-fluorobenzyl)-3,5-dimethyl-1H-pyrazol-4-yl]quinoline-4-carboxamide]",364 nM
7,Cc1c(NC(=O)c2cc(C(N)=O)nc3ccc(Br)cc23)c(C(F)(F)F)nn1Cc1ccc(F)cc1F [Example 1442],2 nM
8,Cc1cc(Cn2nc(C(F)(F)F)c(NC(=O)c3cc(C(N)=O)nc4cc(F)ccc34)c2C)no1 [Example 1539],47.3 nM
9,C#CCNC(=O)c1ccc(Cn2nc(C)c(NC(=O)c3cc(C(F)(F)F)nc4ccc(Br)cc34)c2C)cc1 [Example 1141],108 nM
10,Cc1nn(Cc2ccc(C#N)cc2)c(C)c1NC(=O)c1cc(N(C)C)nc2ccccc12 [Example 1092],37.9 nM
11,COc1cc(C(=O)Nc2c(C)nn(Cc3ccccc3OC(F)(F)F)c2C)c2ccccc2n1 [Example 1289],6250 nM
12,Cc1nn(Cc2ccc(F)cc2)c(C(N)=O)c1NC(=O)c1cc(C(F)(F)F)nc2ccc(Br)cc12 [Example 1197],385 nM
13,"COc1ccc(Cn2nc(C)c(NC(=O)c3cc(C)nc4ccc(C)cc34)c2C)cc1 [Example 4, N-[1-(4-methoxybenzyl)-3,5-dimethyl-1H-pyrazol-4-yl]-2,6-dimethylquinoline-4-carboxamide]",3.8 nM
14,"Cc1c(NC(=O)c2cc(C(N)=O)nc3cc(F)ccc23)c(C(F)(F)F)nn1Cc1ccc(C(=O)NCCN(C)C)cc1 [Example 374, N^4-[1-(4-{[2-(dimethylamino)ethyl]carbamoyl}benzyl)-5-methyl-3-(trifluoromethyl)-1H-pyrazol-4-yl]-7-fluoroquinoline-2,4-dicarboxamide]",895 nM
15,COc1cc(Cn2nc(C(F)(F)F)c(NC(=O)c3cc(C(N)=O)nc4cc(F)ccc34)c2C)ccc1C#N [Example 1664],2.6 nM
16,COc1cc(C(=O)Nc2c(C)nn(CCc3cccc(F)c3)c2C)c2ccccc2n1 [Example 1202],430 nM
17,"COC(=O)c1ccc(Cn2nc(C)c(NC(=O)c3cc(C(F)(F)F)nc4ccc(Br)cc34)c2C)cc1 [Example 131, methyl 4-{[4-({[6-bromo-2-(trifluoromethyl)quinolin-4-yl]carbonyl}amino)-3,5-dimethyl-1H-pyrazol-1-yl]methyl}benzoate]",8.3 nM
18,"Cc1nn(Cc2ccc(F)cc2)c(C)c1NC(=O)c1cc(C(F)(F)F)nc2cccc(F)c12 [Example 26, 5-fluoro-N-[1-(4-fluorobenzyl)-3,5-dimethyl-1H-pyrazol-4-yl]-2-(trifluoromethyl)quinoline-4-carboxamide]",15.7 nM
19,"Cc1nn(CCCc2ccc(C#N)cc2)c(C)c1NC(=O)c1cc(C(N)=O)nc2ccccc12 [Example 347, N^4-{1-[3-(4-cyanophenyl)propyl]-3,5-dimethyl-1H-pyrazol-4-yl}quinoline-2,4-dicarboxamide]",2.2 nM
20,Cc1nn(Cc2ccc(C(=O)NCC3CCCO3)cc2)c(C)c1NC(=O)c1cc(C(F)(F)F)nc2ccc(Br)cc12 (stereo not drawn) [Example 1058],15.3 nM
21,Cc1ccccc1Cn1nc(C(F)(F)F)c(NC(=O)c2cc(C(N)=O)nc3cccc(F)c23)c1C [Example 1496],6.2 nM

# Source: patent US20170037028A1 (BAYER PHARMA AKTIENGESELLSCHAFT, priority 2013, published 2017)
